{
  "source": "patent US8362259B2",
  "about": "“Process for the preparation of esomeprazole magnesium in a stable form” (Lek Pharmaceuticals, D.D., priority 2008, dated 2013)",
  "format_in_all_cases": "physicochemical",
  "key": {"[1]": {"experiment": "stress stability testing, HPLC related substances and degradation products", "set-up": "HPLC related substance RRt 0.10 / HPLC related substance RRt 0.11 / HPLC related substance RRt 0.16 / HPLC related substance RRt 0.20 / HPLC related substance RRt 1.45 / HPLC related substance RRt 1.59 / HPLC related substance RRt 1.61 / HPLC related substance RRt 2.20 / HPLC related substance RRt 2.25: unit not given here", "protocol": "Illustratively, it was tested under regular pharmaceutical tests such as stress condition test (Table 1) and was compared with chemical stability of the starting amorphous esomeprazole magnesium or esomeprazole Mg dihydrate form B (Table 2)."}, "[2]": {"experiment": "removal of residual solvents by drying (Comparative Example 2)", "details": "drying at high temperatures", "from_the_text": "Further removing of residual solvents was studied on amorphous esomeprazole magnesium by drying."}, "[3]": {"experiment": "physical (polymorphic) stability under stress conditions", "details": "14 days 40° C./75% relative humidity, 7 days 60° C.", "protocol": "In addition, also physical stability of esomeprazole magnesium dihydrate form A obtained according to the present invention was tested."}, "[4]": {"details": "40° C./75 RH, open dish, 14 days, open vial"}},
  "data": [
    {"compound": "COc1ccc2[n-]c([S@@+]([O-])Cc3ncc(C)c(OC)c3C)nc2c1.COc1ccc2[n-]c([S@@+]([O-])Cc3ncc(C)c(OC)c3C)nc2c1.O.O.[Mg+2]", "values": [
      {"measurement": "chemical stability compared among the three forms of esomeprazole magnesium", "setting": "[1]; stress stability testing, all three forms compared", "result": "chemically the most stable form"}
    ]},
    {"compound": "magnesium bis(5-methoxy-2-[(S)-[(4-methoxy-3,5-dimethyl-2-pyridinyl)methyl]sulfinyl]-1H-benzimidazole) [Amorphous esomeprazole magnesium]", "values": [
      {"measurement": "HPLC - Related substances and degradation products: Sum", "setting": "[1]; [4]", "result": 0.43},
      {"measurement": "HPLC related substance OMP-benzimidazole (Ph. Eur. Imp. A)", "setting": "[1]; [4]", "result": 0.04},
      {"measurement": "HPLC related substance RRt 0.10", "setting": "[1]; [4]", "result": 0.04},
      {"measurement": "HPLC related substance RRt 0.11", "setting": "[1]; [4]", "result": 0.09},
      {"measurement": "HPLC related substance RRt 0.16", "setting": "[1]; [4]", "result": 0.07},
      {"measurement": "HPLC related substance RRt 0.20", "setting": "[1]; [4]", "result": 0.04},
      {"measurement": "HPLC related substance RRt 1.45", "setting": "[1]; [4]", "result": 0.06},
      {"measurement": "HPLC related substance RRt 2.20", "setting": "[1]; [4]", "result": 0.09},
      {"measurement": "HPLC - Related substances and degradation products: Sum", "setting": "[1]; 60° C., 7 days, vial", "result": 0.79},
      {"measurement": "HPLC related substance OMP-N-oxide (Ph. Eur. Imp. E)", "setting": "[1]; 60° C., 7 days, vial", "result": 0.03},
      {"measurement": "HPLC related substance OMP-N-sufone (Ph. Eur. Imp. D)", "setting": "[1]; 60° C., 7 days, vial", "result": 0.03},
      {"measurement": "HPLC related substance OMP-benzimidazole (Ph. Eur. Imp. A)", "setting": "[1]; 60° C., 7 days, vial", "result": 0.06},
      {"measurement": "HPLC related substance RRt 0.11", "setting": "[1]; 60° C., 7 days, vial", "result": 0.12},
      {"measurement": "HPLC related substance RRt 0.16", "setting": "[1]; 60° C., 7 days, vial", "result": 0.18},
      {"measurement": "HPLC related substance RRt 0.20", "setting": "[1]; 60° C., 7 days, vial", "result": 0.06},
      {"measurement": "HPLC related substance RRt 1.45", "setting": "[1]; 60° C., 7 days, vial", "result": 0.15},
      {"measurement": "HPLC related substance RRt 2.20", "setting": "[1]; 60° C., 7 days, vial", "result": 0.07},
      {"measurement": "HPLC related substance RRt 2.25", "setting": "[1]; 60° C., 7 days, vial", "result": 0.09},
      {"measurement": "HPLC - Related substances and degradation products: Sum", "setting": "[1]; Initial analysis", "result": 0.10},
      {"measurement": "HPLC related substance RRt 0.16", "setting": "[1]; Initial analysis", "result": 0.06},
      {"measurement": "HPLC related substance RRt 1.45", "setting": "[1]; Initial analysis", "result": 0.04},
      {"measurement": "chemical stability on drying to remove residual solvents", "setting": "[2]", "result": "accompanied by chemical decomposition"}
    ]},
    {"compound": "magnesium bis(5-methoxy-2-[(S)-[(4-methoxy-3,5-dimethyl-2-pyridinyl)methyl]sulfinyl]-1H-benzimidazole) [Esomeprazole magnesium dihydrate form A]", "values": [
      {"measurement": "Chromatographic purity", "setting": "[1]; [4]", "result": 99.85},
      {"measurement": "HPLC - Related substances and degradation products: Sum", "setting": "[1]; [4]", "result": "≦0.05"},
      {"measurement": "Chromatographic purity", "setting": "[1]; 60° C., 7 days, vial", "result": 99.82},
      {"measurement": "HPLC - Related substances and degradation products: Sum", "setting": "[1]; 60° C., 7 days, vial", "result": "≦0.05"},
      {"measurement": "Chromatographic purity", "setting": "[1]; Initial analysis", "result": 99.85},
      {"measurement": "physical stability of the polymorphic form", "setting": "[3]", "result": "stable"}
    ]},
    {"compound": "magnesium bis(5-methoxy-2-[(S)-[(4-methoxy-3,5-dimethyl-2-pyridinyl)methyl]sulfinyl]-1H-benzimidazole) [Esomeprazole magnesium dihydrate form B]", "values": [
      {"measurement": "HPLC - Related substances and degradation products: Sum", "setting": "[1]; [4]", "result": 0.14},
      {"measurement": "HPLC related substance RRt 1.59", "setting": "[1]; [4]", "result": 0.06},
      {"measurement": "HPLC related substance RRt 1.61", "setting": "[1]; [4]", "result": 0.06},
      {"measurement": "HPLC - Related substances and degradation products: Sum", "setting": "[1]; 60° C., 7 days, vial", "result": 0.07},
      {"measurement": "HPLC related substance Omeprazole-N-methyl", "setting": "[1]; 60° C., 7 days, vial", "result": 0.07},
      {"measurement": "HPLC - Related substances and degradation products: Sum", "setting": "[1]; Initial analysis", "result": "<0.05"}
    ]}
  ]
}
